Reference: patent publication US20210139484A1, “DIHYDROISOQUINOLINE-2(1H)-CARBOXAMIDE AND RELATED COMPOUNDS AND THEIR USE IN TREATING MEDICAL CONDITIONS” (GOSSAMER BIO SERVICES, INC., priority 2018, published 2021)

Target: T1, human HPK1 protein (Homo sapiens, UniProt Q92918)
T1 construct: recombinant human HPK1 protein (a.a. 1-346) was expressed in Sf9 insect cells; GST (N); purchased Signalchem M23-11G; host or cells: Sf9 insect cells (baculovirus)
T1 sequence (Q92918 1-346): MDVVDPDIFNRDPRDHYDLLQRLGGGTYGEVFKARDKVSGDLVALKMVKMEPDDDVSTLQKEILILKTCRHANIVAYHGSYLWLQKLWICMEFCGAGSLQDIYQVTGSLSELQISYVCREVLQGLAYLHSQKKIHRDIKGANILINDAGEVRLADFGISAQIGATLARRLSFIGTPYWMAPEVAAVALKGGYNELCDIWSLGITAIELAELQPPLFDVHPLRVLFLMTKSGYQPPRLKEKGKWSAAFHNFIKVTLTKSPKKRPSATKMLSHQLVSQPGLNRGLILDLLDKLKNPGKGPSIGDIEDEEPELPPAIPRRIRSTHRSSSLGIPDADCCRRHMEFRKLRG
Experiment: Human HPK1 protein TR-FRET assay
Assay type: biochemical
Conditions: 1 mM ATP
Experimental: Exemplary compounds from the above Examples were tested for ability to inhibit HPK1 using a human HPK1 protein TR-FRET Assay. Assay procedures and results are described below.
N-terminal GST-tagged recombinant human HPK1 protein (a.a. 1-346) was expressed in Sf9 insect cells using a baculovirus expression system (Signalchem Catalog #M23-11G). The enzyme was diluted in assay buffer (50 mM Tris pH 7.5, 1 mM MgCl2, 0.01% NP-40 and 2 mM DTT) to obtain a 4× working solution at a concentration of 40 nM HPK1 enzyme.
A 5 μM stock of ULight™ CREBtide peptide RRPSYRK (Perkin Elmer Product No. TRF0107-M) derived from human cAMP Response Element Binding (CREB) Protein was prepared in storage buffer containing 50 mM Tris-HCl (pH 7.4), 0.9% NaCl, 0.1% BSA, and 0.05% sodium azide. The CREBtide substrate was diluted in assay buffer (50 mM Tris pH 7.5, 1 mM MgCl2, 0.01% NP-40, 2 mM DTT) with 2 mM ATP to a final concentration of 200 nM CREBtide peptide to obtain a 2× working solution of substrate. HPK1 enzyme and CREBtide substrate solutions were mixed with compounds diluted in DMSO to obtain a final concentration of enzyme, substrate, and ATP of 10 nM, 100 nM, and 1 mM, respectively, in 1% DMSO. The final assay mixture was incubated at room temperature for 60 minutes.
A solution of Europium-labeled anti-phospho-CREB (Ser133) antibody (Perkin Elmer Product No. TRF0200-M), EDTA and LANCE™ Detection Buffer (Perkin Elmer Product No. CR97-100) were added to each well to obtain a final concentration of 2 nM antibody, 10 mM EDTA and 1× LANCE buffer. The resulting mixture was incubated at room temperature for 60 minutes.
The fluorescence resonance energy transfer (FRET) signal was measured on an Envision plate reader: Excitation filter=340 nm, APC emission=665 nm, Europium emission=615 nm, dichroic mirror=D400/D630, delay time=100 μs, and integration time=200 μs. The half maximal inhibitory concentration (IC50) values for compounds were calculated from the quotient of the fluorescence signal at 665 nm divided by the fluorescence signal at 615 nm. The quotient of the fluorescence signals in the presence of DMSO without compound is set as 100 percent enzymatic activity. A 4-parameter logistic model in PRISM (GraphPad) was used to calculate the IC50 for a given compound.

| SMILES | IC50 (Table 19) | IC50 (Table 20) |
| --- | --- | --- |
| CCN1CCN(Cc2ccc(NC(=O)C3CCc4ccc(Oc5ccnc6[nH]c(C)cc56)cc4N3)cc2C(F)(F)F)CC1 (centres unmarked) [compound 15, N-(4-((4-ethylpiperazin-1-yl)methyl)-3-(trifluoromethyl)phenyl)-7-((2-methyl-1H-pyrrolo[2,3-b]pyridin-4-yl)oxy)-1,2,3,4-tetrahydroquinoline-2-carboxamide] | < 500 nM |  |
| CCC1CN(C(=O)Nc2ccc(CN3CCN(CC)CC3)c(C(F)(F)F)c2)Cc2cc(Oc3ccnc4[nH]c(C5=CCN(C(=O)C6CC6)CC5)cc34)cnc21 (centres unmarked) [XIV-155] |  | < 500 nM |
| CCN1CCN(Cc2ccc(NC(=O)N3CCc4ccc(Oc5ncnc6[nH]ccc56)cc4C3)cc2C(F)(F)F)CC1 [II-3] | < 500 nM |  |
| CCN1CCN(Cc2ccc(NC(=O)N3Cc4cc(Oc5ccnc6[nH]ccc56)ccc4C(C(F)(F)F)C3)cc2C(F)(F)F)CC1 (centres unmarked) [XVIII-15] |  | < 500 nM |
| CCN1CCN(Cc2ccc(NC(=O)N3CCc4c(C#N)cc(Oc5ccnc6[nH]ccc56)cc4C3C)cc2C(F)(F)F)CC1 (centres unmarked) [IV-11] | 500 to 5000 nM |  |
| CCN1CCN(Cc2ccc(NC(=O)N3CCc4ccc(Oc5ccnc(NC(=O)C6CC6)c5)cc4C3)cc2C(F)(F)F)CC1 [II-15] | < 500 nM |  |
| CCN1CCN(Cc2ccc(NC(=O)N3CCc4ncc(Oc5ccnc6[nH]c(C)cc56)cc4C3C)cc2C(F)(F)F)CC1 (centres unmarked) [VIII-1] | 500 to 5000 nM |  |
| CC[C@H]1CN(C(=O)Nc2ccc(CN3CCN(C)CC3)c(C(F)(F)F)c2)Cc2cc(Oc3ccnc4[nH]c(C(=O)NCCCO)cc34)cnc21 [XIV-108] |  | < 500 nM |
| CCN1CCN(Cc2ccc(NC(=O)N3Cc4cc(Oc5ccnc6ncc(=O)[nH]c56)cnc4C(C)C3)cc2C(F)(F)F)CC1 (single isomer, unassigned) [XIV-8] |  | 500 to 5000 nM |
| CN1CCN(Cc2cc(F)c(NC(=O)N3CCc4ccc(Oc5c(F)cnc6[nH]c(-c7cnn(C)c7)cc56)cc4C3)cc2C(F)(F)F)CC1 [XII-16] |  | < 500 nM |
| CC[C@H]1CN(C(=O)Nc2cnc(CN3CCN(CC)CC3)c(C(F)(F)F)c2)Cc2cc(Oc3ccnc4[nH]ccc34)cnc21 [XIV-10] |  | < 500 nM |
| Cc1cc2c(Oc3cnc4c(c3)CN(C(=O)Nc3ccc(CN5CCN(C)CC5)c(OC(F)F)c3)C[C@H]4C)ccnc2[nH]1 [XIV-93] |  | < 500 nM |
| CC[C@@H]1CN(C(=O)Nc2ccc(CN3CCNCC3)c(C(F)(F)F)c2)Cc2cc(Oc3ccnc4[nH]c(C5(O)COC5)cc34)cnc21 [XIV-48] |  | < 500 nM |
| C[C@@H]1Cc2ccc(Oc3c(F)cnc4[nH]c(-c5cnn(C)c5)cc34)cc2CN1C(=O)Nc1ccc(CN2CCN(C)CC2)c(C(F)(F)F)c1 [XVI-4] |  | < 500 nM |
| CCC1CN(C(=O)Nc2ccc(CN3CCN(CC)CC3)c(C(F)(F)F)c2)Cc2cc(Oc3ccnc4[nH]c(C5=CCOC5)cc34)cnc21 (centres unmarked) [XIV-62] |  | < 500 nM |
| CCC1CN(C(=O)Nc2ccc(CN3CCN(CC)CC3)c(C(F)(F)F)c2)Cc2cc(Oc3ccnc4[nH]c(C(C)OC)cc34)cnc21 (centres unmarked) [XIV-41] |  | 5000 to 10000 nM |
| CC[C@@H]1CN(C(=O)Nc2ccc(CN3CCN(C)CC3)c(C(F)(F)F)c2)Cc2cc(Oc3ccnc4[nH]c(C5CC5)cc34)cnc21 [XIV-73] |  | < 500 nM |
| CCN1CCN(Cc2ccc(NC(=O)N3Cc4cc(Oc5ccnc6[nH]ccc56)cnc4C(C)C3)cc2C(F)(F)F)CC1 (centres unmarked) [compound 10, 3-((1H-Pyrrolo[2,3-b]pyridin-4-yl)oxy)-N-(4-((4-ethylpiperazin-1-yl)methyl)-3-(trifluoromethyl)phenyl)-8-methyl-7,8-dihydro-1,6-naphthyridine-6(5H)-carboxamide] | < 500 nM |  |
| CCN1CCN(Cc2ccc(NC(=O)N3CCc4cc(F)c(Oc5ccnn6cccc56)cc4C3C)cc2C(F)(F)F)CC1 (centres unmarked) [IV-31] | < 500 nM |  |
| CCN1CCN(Cc2ccc(NC(=O)N3CCc4ncc(Oc5ccnc6[nH]c(C)cc56)cc4C3C)cc2C(F)(F)F)CC1 (single isomer, unassigned) [XI-9] |  | < 500 nM |
| CCC1CN(C(=O)Nc2ccc(CN3CCN(CC)CC3)c(C(F)(F)F)c2)Cc2cc(Oc3ccnc4[nH]c(C5CCN(C(=O)C6CC6)CC5)cc34)ccc21 (centres unmarked) [XV-40] |  | < 500 nM |

| SMILES | IC50 (Table 19) | IC50 (Table 20) |
| --- | --- | --- |
| CCN1CCN(Cc2ccc(NC(=O)N3Cc4cc(Oc5ccnc6[nH]ccc56)cnc4C[C@@H]3C)cc2C(F)(F)F)CC1 [XVIII-18] |  | < 500 nM |
| CC[C@@H]1CN(C(=O)Nc2ccc(CN3CCN(CCO)CC3)c(C(F)F)c2)Cc2cc(Oc3ccnc4[nH]c(C5CC5)cc34)ccc21 [XV-24] |  | < 500 nM |
| CCN1CCN(Cc2ccc(NC(=O)N3CCc4ccc(Oc5ccnc6[nH]ccc56)cc4C3=O)cc2C(F)(F)F)CC1 [X-2] | 500 to 5000 nM |  |
| CCN1CCN(Cc2ccc(NC(=O)N3Cc4cc(Oc5ccnc6[nH]c(C)cc56)cnc4C(C)C3)cc2C(F)(F)F)CC1 (centres unmarked) [VII-3] | < 500 nM |  |
| CCN1CCN(Cc2ccc(NC(=O)N3CCc4ncc(Oc5ccnc6[nH]ncc56)cc4C3C)cc2C(F)(F)F)CC1 (single isomer, unassigned) [VIII-4] | 500 to 5000 nM |  |
| CCN1CCN(Cc2ccc(NC(=O)N3CCc4ncc(Oc5ncnc6[nH]c(C)cc56)cc4C3C)cc2C(F)(F)F)CC1 (centres unmarked) [VIII-6] | 500 to 5000 nM |  |
| C[C@@H]1Cc2ccc(Oc3ccnc4[nH]c(C5(O)CC5)cc34)cc2CN1C(=O)Nc1ccc(CN2CCN(C)CC2)c(C(F)(F)F)c1 [XVI-2] |  | < 500 nM |
| C[C@H]1c2cc(Oc3ccnc4[nH]c(C5(O)COC5)cc34)ccc2CCN1C(=O)Nc1ccc(CN2CCNCC2)c(C(F)(F)F)c1 [XIII-7] |  | < 500 nM |
| CC[C@@H]1CN(C(=O)Nc2ccc(CN3CCN(CCO)CC3)c(C(F)(F)F)c2)Cc2cc(Oc3ccnc4[nH]c(CO)cc34)ccc21 [XV-6] |  | < 500 nM |
| CC[C@H]1CN(C(=O)Nc2ccc(CN3CCN(C)CC3)c(C(F)(F)F)c2)Cc2cc(Oc3ccnc4[nH]c(-c5cc[nH]n5)cc34)cnc21 [XIV-148] |  | < 500 nM |
| CCN1CCN(Cc2ccc(NC(=O)N3CCc4c(F)cc(Oc5ccnc6[nH]ccc56)cc4C3C)cc2C(F)(F)F)CC1 (centres unmarked) [IV-15] | < 500 nM |  |
| CC[C@H]1CN(C(=O)Nc2ccc(CN3CCN(C)CC3)c(C(F)(F)F)c2)Cc2cc(Oc3ccnc4[nH]c(C#N)cc34)ccc21 [XV-28] |  | < 500 nM |
| CCN1CCN(Cc2ccc(NC(=O)N3CCc4ccc(Oc5cc(NC(=O)c6ccnnc6)ncc5F)cc4[C@@H]3C)cc2C(F)(F)F)CC1 [XIII-14] |  | < 500 nM |
| CN1CCN(Cc2ccc(NC(=O)N3CCc4ccc(Oc5c(F)cnc6[nH]c(-c7cccnc7)cc56)cc4C3)cc2C(F)(F)F)CC1 [XII-7] |  | < 500 nM |
| CCN1CCN(Cc2ccc(NC(=O)N3Cc4cc(Oc5ccnc6[nH]ncc56)cnc4C(C)C3)cc2C(F)(F)F)CC1 (centres unmarked) [VII-16] | < 500 nM |  |
| CCN1CCN(Cc2ccc(NC(=O)N3Cc4cc(Oc5ccnc6[nH]c(C)cc56)ccc4C(O)C3)cc2C(F)(F)F)CC1 (centres unmarked) [compound 18, N-(4-((4-ethylpiperazin-1-yl)methyl)-3-(trifluoromethyl)phenyl)-4-hydroxy-7-((2-methyl-1H-pyrrolo[2,3-b]pyridin-4-yl)oxy)-3,4-dihydroisoquinoline-2(1H)-carboxamide] | < 500 nM |  |
| CCN1CCN(Cc2ccc(NC(=O)N3CCc4ncc(Oc5ncnc6[nH]c(C)cc56)cc4[C@@H]3C)cc2C(F)(F)F)CC1 [XI-7] |  | 500 to 5000 nM |
| CCN1CCN(Cc2ccc(NC(=O)N3CCc4ccc(Oc5ccnn6cc(-c7c[nH]cn7)cc56)cc4C3)cc2C(F)(F)F)CC1 [II-25] | < 500 nM |  |
| CC[C@H]1CN(C(=O)Nc2ccc(CN3CCNCC3)c(C(F)(F)F)c2)Cc2cc(Oc3ccnn4cc(C(=O)N(C)C)cc34)cnc21 [XIV-124] |  | < 500 nM |
| CCN1CCC(Oc2ncc(NC(=O)N3CCc4ccc(Oc5ccnc6[nH]c(C)cc56)cc4[C@@H]3C)cc2C(F)(F)F)CC1 [VI-3] | < 500 nM |  |
